The conditions of series [1]: female, Long-Evans, rat, in vivo, po, 20 mg/kg.
In the next series the test system is serum testosterone. Put plainly: Serum testosterone in male cynomolgus monkeys dosed orally. The class given is in vivo. As to conditions: oral 2.5, 10 or 40 mg acolbifene/day, 13 weeks. On the procedure: FIG. 13: Male cynomolgus monkeys were dosed orally with 2.5, 10 or 40 mg acolbifene/day for 13 weeks. Control monkeys received vehicle alone (0.4% methylcellulose). […] Results are expressed as the mean±SEM of 4 monkeys per group. P values (versus control) were calculated using a two-sided t test assuming equality of variances. FIG. 14: […] Control monkeys received vehicle alone (0.4% methylcellulose). […] P values (versus control) were calculated using a two-sided t test assuming equality of variances.

The next series concerns serum E2 levels. In words: Serum E2 in a premenopausal person with advanced breast cancer on acolbifene. The class given is in vivo, human. Particulars: 20 mg daily oral, 6 months, from 222 before.
For series [2], the system named is ovariectomized female rats. Put plainly: 3-month treatment of ovariectomized female rats: lumbar spine BMD, total fat, cholesterol, ALP (Example 3, experiment 1). It is filed as in vivo, Sprague-Dawley rats. Particulars: OVX rats, 3 months, serum. Here is the method:
Ten to twelve week-old female Sprague-Dawley rats (Crl:CD(SD)Br) (Charles River Laboratory, St-Constant, Canada) weighing approximately 220-270 g at start of treatment were used. The animals were acclimatized to the environmental conditions (temperature: 22±3° C.; humidity: 50±20%; 12-h light-12-h dark cycles, lights on at 07:15 h) for at least 1 week before starting the experiments. The animals were housed individually and were allowed free access to tap water and a pelleted certified rodent feed (Lab Diet 5002, Ralston Purina, St-Louis, Mo.). Experiments were conducted in an animal facility approved by the Canadian Council on Animal Care (CCAC) and the Association for Assessment and Accreditation of Laboratory Animal Care (AAALAC) in accordance with the CCAC Guide for Care and Use of Experimental Animals.
On Day 1 of the study, the animals of the appropriate groups were bilaterally ovariectomized (OVX) under isoflurane anesthesia. The DHEA was applied topically on the dorsal skin as a solution in 50% ethanol-50% propylene glycol while the other tested compounds were administered as suspension in 0.4% methylcellulose by oral gavage. Treatments were initiated on Day 2 of the study and were performed once daily during 3 months.
(§1) After 3 months (experiment 1) or 26 weeks (experiment 2) of treatment, individual rats under Isoflurane anesthesia had their whole body skeleton and lumbar spine scanned using dual energy x-ray absorptiometry (DEXA; QDR 4500A, Hologic, Waltham, Mass.) and a Regional High Resolution Scan software. The bone mineral density (BMD) of the lumbar spine (vertebrae L2 to L4) and the total body composition (fat percentage) were determined.
After 3 months (experiment 1) or 26 weeks (experiment 2) of treatment, blood samples were collected at the jugular vein from overnight fasted animals (under Isoflurane anesthesia). Samples were processed for serum preparation and frozen at −80° C. until assay. Serum cholesterol levels and alkaline phospatase activity (ALP) were determined using the Boehringer Mannheim Diagnostic Hitachi 911 Analyzer (Boehringer Mannheim Diagnostic Laboratory Systems).
Data are expressed as means±SEM. Statistical significance was determined according to the multiple-range test of Duncan-Kramer (Kramer 1956).

Series [3] concerns human ZR-75-1 breast tumors. In words: ZR-75-1 tumor growth in ovariectomized nude mice in absence of estrone (agonistic effects). As to conditions: no estrone, 200 μg daily, 161 days, hydrochloride.
Series [4] relates to ovariectomized female rats. Put plainly: 26-week treatment of ovariectomized female rats: lumbar spine BMD, total fat, cholesterol, ALP (Example 3, experiment 2). The class given is in vivo, Sprague-Dawley rats. Particulars: OVX rats, 26 weeks, serum. On the procedure:
Ten to twelve week-old female Sprague-Dawley rats (Crl:CD(SD)Br) (Charles River Laboratory, St-Constant, Canada) weighing approximately 220-270 g at start of treatment were used. The animals were acclimatized to the environmental conditions (temperature: 22±3° C.; humidity: 50±20%; 12-h light-12-h dark cycles, lights on at 07:15 h) for at least 1 week before starting the experiments. The animals were housed individually and were allowed free access to tap water and a pelleted certified rodent feed (Lab Diet 5002, Ralston Purina, St-Louis, Mo.). […]
as §1
After 3 months (experiment 1) or 26 weeks (experiment 2) of treatment, blood samples were collected at the jugular vein from overnight fasted animals (under Isoflurane anesthesia). […] Serum cholesterol levels and alkaline phospatase activity (ALP) were determined using the Boehringer Mannheim Diagnostic Hitachi 911 Analyzer (Boehringer Mannheim Diagnostic Laboratory Systems).
Data are expressed as means±SEM. […]

The test system of the next series is uterine epithelial cells. In words: Thickness of uterine (endometrial) epithelial cells in ovariectomized nude mice. Particulars: no estrone, 200 μg daily.
For a further series, the system named is ovariectomized mice. Put plainly: Estrogenic activity: uterine and vaginal weight in ovariectomized mice, compounds alone. As to conditions: OVX mice, no estrone; 10 μg daily oral. The class given is in vivo, BALB/c mice. Here is the method:
Female BALB/c mice (BALB/cAnNCrlBR) weighing 18-20 g were obtained from Charles-River, Inc. (St-Constant, Quebec, Canada) and housed 5 per cage in a temperature (23±1° C.)- and light (12 h light/day, lights on at 7:15)-controlled environment. The mice were fed rodent chow and tap water ad libitum. The animals were ovariectomized (OVX) under Isoflurane anesthesia via bilateral flank incisions and randomly assigned to groups of 10 animals. Ten mice were kept intact as controls.
In the second experiment (Table 4), TSE 424 was administered orally by gavage once daily at doses of 1, 3, 10 or 30 μg/animal for 9 days, starting 2 days after ovariectomy. In both experiments, to evaluate the antiestrogenic activity, treatment with estrone (E1, 0.06 μg, s.c. injection, twice daily) was started 5 days post-ovariectomy and was administered for a 6 day-period. Compounds were dissolved in ethanol (4% final concentration) and administered in 0.4% methylcellulose. Mice in the intact and OVX control groups received the vehicle alone (4% ETOH-0.4% methylcellulose) during the 9-day period. The animals were killed by exsanguination at the abdominal aorta on the 11th morning following ovariectomy. The uteri and vagina were rapidly dissected, weighed, and kept in 10% buffered formalin for further histologic examination.

Series [5] deals with human breast cancer MCF-7 cells. In words: Proliferation of MCF-7 cells (DNA content). It is filed as cell-based. As to conditions: Experiment 2. Here is the method: The MCF-7 human breast adenocarcinoma cell line was derived from the pleural effusion of a patient. MCF-7 cells were used between passages 148 and 165 and subcultured weekly.
Cells in their late logarithmic growth phase were harvested with 0.1% pancreatin (Sigma) and resuspended in the appropriate medium containing 50 ng bovine insulin/mL and 5% (v/v) FBS treated twice with dextran-coated charcoal to remove endogenous steroids. Cells were plated in 24-well Falcon plastic culture plates (2 Cm^2/well) at the indicated density and allowed to adhere to the surface of the plates for 72 h. Thereafter, medium was replaced with fresh medium containing the indicated concentrations of compounds diluted from 1000× stock solutions in 99% redistilled ethanol in the presence or absence of E2. Control cells received only the ethanolic vehicle (0.1% EtOH, v/v). Cells were incubated for the specified time intervals with medium changes at 2- or 3-day intervals. Cell number was determined by measurement of DNA content.
Dose-response curves as well IC50 values were calculated using a weighted iterative nonlinear least-squares regression. All results are expressed as means±SEM.

The conditions of series [6]: men with serum testosterone <3.0 ng/mL after coronography; control group 15.4%; cited from earlier work.
For series [7] the following is noted: patients treated with testosterone; cited from earlier work.

Entries after “also recorded” stand apart in the source; their conditions may differ.

Turning to `CC1=C(c2ccc(OC(=O)C(C)(C)C)cc2)[C@H](c2ccc(OCCN3CCCCC3)cc2)Oc2cc(OC(=O)C(C)(C)C)ccc21` [14C-EM-800], in series [1], the “total drug-derived radioactivity in the brain, detection” value is “not detected after 12 hr post dose”.
Take `CC1=C(c2ccc(O)cc2)[C@H](c2ccc(OCCN3CCCCC3)cc2)Oc2cc(O)ccc21.Cl` [EM-652.HCl, (S)-(+)-7-hydroxy-3-(4′-hydroxyphenyl)-4-methyl-2-(4″-(2′″-piperidinoethoxy)phenyl)-2H-1-benzopyran hydrochloride]: the “serum testosterone levels (FIGS. 13 and 14)” value with serum testosterone is “increased serum testosterone levels”. For the same compound, in the series on serum E2 levels, the serum E2 levels was determined as 2030 pg/mL. The same compound registered an ALP in series [2] of 91 ± 6 IU/L. The CHOLESTEROL in series [2] turned out to be 0.87 ± 0.04 mmol/L; in [4] it was 0.98 ± 0.06 mmol/L. Besides, the entries for the “effect of compound alone on ZR-75-1 tumor size compared to OVX control” value in [3] and in series [3] (listed as Acolbifene) were “did not exert any stimulatory effect; also recorded: did not significantly change” and “no effect on tumor growth”, respectively. Further, the “height of uterine epithelial cells, % of the OVX control group value” with uterine epithelial cells turned out to be 114%.
Regarding `Oc1ccc2c(c1)CC[C@H](c1ccccc1)[C@@H]2c1ccc(OCCN2CCCC2)cc1` [lasofoxifene (free base)], in the series with ovariectomized mice, the “stimulation of uterine weight” value stood at 93% and the “stimulation of vaginal weight” value is listed as 73%. Moreover, in series [5], the “Stimulation of DNA by tested compounds” value is “N.S”.
For `C[C@]12CC[C@H]3[C@@H](CCC4=CC(=O)CC[C@@]43C)[C@@H]1CC[C@@H]2O` [testosterone], the “rate of deaths at 3 years” value in [6] is given as 18.5%. In series [7], the “decrease in mortality risk” value is recorded as 39% and the “lower incidence of heart disease” value is given as 20%.

Values taken from patent US9744177B2, “Treatment of male androgen deficiency symptoms or diseases with sex steroid precursor combined with SERM” (ENDORECHERCHE, INC., priority 2014, dated 2017).
